From ChEMBL document CHEMBL1146785, “Synthesis and activity of phosphinic tripeptide inhibitors of cathepsin C” (Bioorg Med Chem Lett, 2004) come the findings set out here.

In the test the target is T1, Dipeptidyl peptidase 1 (Mus musculus, UniProt P97821).
T1 sequence (P97821 whole entry): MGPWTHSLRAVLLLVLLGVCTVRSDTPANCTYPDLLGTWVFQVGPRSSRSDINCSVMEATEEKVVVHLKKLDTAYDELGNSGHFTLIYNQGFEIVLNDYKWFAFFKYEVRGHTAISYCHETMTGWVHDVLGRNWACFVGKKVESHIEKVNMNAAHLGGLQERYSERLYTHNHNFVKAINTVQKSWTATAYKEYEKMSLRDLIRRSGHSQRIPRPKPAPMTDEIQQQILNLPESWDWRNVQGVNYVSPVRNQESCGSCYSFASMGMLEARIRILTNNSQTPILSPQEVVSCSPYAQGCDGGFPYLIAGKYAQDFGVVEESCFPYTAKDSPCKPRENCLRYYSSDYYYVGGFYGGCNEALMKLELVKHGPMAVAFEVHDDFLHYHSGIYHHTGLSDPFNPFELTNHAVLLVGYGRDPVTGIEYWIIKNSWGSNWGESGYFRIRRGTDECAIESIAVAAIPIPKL
The test is described as follows: Compound was evaluated to inhibit cathepsin C (Dipeptidyl peptidase I) in non competitive binding assay.
One may read the Ki as a measure of affinity in units of concentration, obtained from inhibition or displacement. The low end stands for higher affinity, the high end for lower affinity. As for `COC(=O)CCP(=O)(O)C(CCc1ccccc1)NC(=O)CN` (stereo not drawn), affinity was put at a Ki of 312 µM.
In the case of `NCC(=O)NC(CCc1ccccc1)P(=O)(O)CCC(=O)O` (stereo not drawn) it was 187 µM; in that of `CC(C)CC(NC(=O)CN)P(=O)(O)CCC(=O)O` (stereo not drawn), 39 µM.
With `COC(=O)CCP(=O)(O)C(NC(=O)CN)c1ccccc1` (stereo not drawn) the figure was 188 µM.
The compound `NCC(=O)NC(c1ccccc1)P(=O)(O)CCC(=O)O` (stereo not drawn) registered a Ki of 176 µM. This Ki and that of the compound before are within 1.5-fold of each other.
On to `COC(=O)CCP(=O)(O)C(CC(C)C)NC(=O)CN` (stereo not drawn), for which the Ki came out at 40 µM.
Compound `NCC(=O)NC(Cc1ccccc1)P(=O)(O)CCC(=O)O` (stereo not drawn) returned a Ki of 429 µM. Compared with the last compound, the Ki is about 11-fold higher.
In the case of `COC(=O)CCP(=O)(O)C(Cc1ccccc1)NC(=O)CN` (stereo not drawn) it was 514 µM.
